Structures are written as SMILES. Active and inactive are the calls of the source. The rule behind the calls is not given here.

For three compounds, Activity and T/C results are on record in ChEMBL document CHEMBL5712891, “Inhibition of BET bromodomain-dependent XIAP and FLIP expression sensitizes KRAS-mutated NSCLC to pro-apoptotic agents” (Cell Death Dis, 2016).

For assay [1], the system named is DV-90. In words: Downregulation of […] gene in human DV-90 cells after 24 hrs by microarray profiling analysis. The assay is classed as functional, cell-based.
The subject of assay [2] is NCI-H2030. In words: Downregulation of c-MYC protein expression level in human NCI-H2030 cells at 1 uM for 24 hrs by […] analysis. The assay is classed as functional, cell-based.
Assay [3] has as its system NCI-H460. Nature of the assay: Antiproliferative activity against human NCI-H460 cells at 500 to 2500 nM in presence of TNF by cell titre glo assay. Particulars: dose 500-2500 nM. In kind it is functional, cell-based.
For assay [4], the system named is NCI-H1373. In words: Induction of cell cycle arrest in human NCI-H1373 cells assessed as accumulation of cells at G2/M phase at 0.1 uM for 24 hrs by Click-iT EdU Alexa Fluor 647 flow cytometric assay kit analysis (reference value: 13%). The assay is classed as functional. On the technique in general: A flow cytometer gives signals particle by particle.
Assay [5] relates to A549. In words: Antitumor activity against human A549 cells assessed as test to control tumor ratio at 80 mg/kg, ip for 28 days relative to control. The assay is classed as functional. Particulars: time 28 day.
Assay [6] concerns NCI-H1373. In words: Induction of TRAIL dependent apoptosis in human NCI-H1373 cells assessed as necrotic cells at 1 uM in presence of […] by annexin V-PI staining based flow cytometric analysis (reference value: 3.6%). In kind it is functional.
Assay [7] concerns NCI-H1373. In words: Induction of cell cycle arrest in human NCI-H1373 cells assessed as accumulation of cells at G2/M phase at 1 uM for 24 hrs by Click-iT EdU Alexa Fluor 647 flow cytometric assay kit analysis (reference value: 13%). In kind it is functional.
Assay [8] deals with A549. Nature of the assay: Induction of apoptosis in human A549 cells assessed as early apoptotic cells at 0.5 uM for 24 hrs by annexin V-PI staining based flow cytometric analysis (reference value: 0.4%). The assay is classed as functional.
Assay [9] relates to DV-90. Nature of the assay: Induction of apoptosis in human DV-90 cells assessed as necrotic cells at 0.5 uM for 24 hrs by annexin V-PI staining based flow cytometric analysis (reference value: 5.4%). The assay is classed as functional.
Assay [10] relates to NCI-H460. Nature of the assay: Induction of apoptosis in human NCI-H460 cells assessed as early apoptotic cells at 2.5 uM for 24 hrs by annexin V-PI staining based flow cytometric analysis (reference value: 0.2%). The assay is classed as functional.
For assay [11], the system named is NCI-H460. Nature of the assay: Induction of apoptosis in human NCI-H460 cells assessed as late apoptotic cells at 0.5 uM for 24 hrs by annexin V-PI staining based flow cytometric analysis (reference value: 3.0%). In kind it is functional.
The subject of assay [12] is NCI-H1373. Nature of the assay: Downregulation of XIAP protein expression level in human NCI-H1373 cells at 1 uM for 24 hrs by […] analysis. In kind it is functional, cell-based. In general terms: In qPCR the cycle at which signal appears reflects the starting amount.
The subject of assay [13] is A549. Nature of the assay: Induction of apoptosis in human A549 cells assessed as early apoptotic cells at 2.5 uM for 24 hrs by annexin V-PI staining based flow cytometric analysis (reference value: 0.4%). In kind it is functional.
In assay [14] the test system is A549. Nature of the assay: Downregulation of XIAP mRNA expression level in human A549 cells at 0.1 to 1 uM for 24 hrs by qRT-PCR analysis. The assay is classed as functional, cell-based. Conditions: dose 0.1-1 µM.
For assay [15], the system named is A549. In words: Induction of cell cycle arrest in human A549 cells assessed as accumulation of cells at G2/M phase at 0.5 uM for 24 hrs by Click-iT EdU Alexa Fluor 647 flow cytometric assay kit analysis (reference value: 3%). In kind it is functional.
The test system of assay [16] is A549. Nature of the assay: Induction of apoptosis in human A549 cells assessed as early apoptotic cells at 1 uM in presence of cisplatin by annexin V-PI based flow cytometric analysis (reference value: 0.2%). The assay is classed as functional.
The subject of assay [17] is NCI-H1373. Nature of the assay: Induction of cell cycle arrest in human NCI-H1373 cells assessed as accumulation of cells at S phase at 1 uM for 24 hrs by DAPI staining analysis (reference value: 40%). In kind it is functional.
Assay [18] deals with NCI-H1373. Nature of the assay: Induction of cell cycle arrest in human NCI-H1373 cells assessed as accumulation of cells at G0/G1 phase at 1 uM for 24 hrs by Click-iT EdU Alexa Fluor 647 flow cytometric assay kit analysis (reference value: 45%). In kind it is functional.
For assay [19], the system named is DV-90. Nature of the assay: Induction of cell cycle arrest in human DV-90 cells assessed as accumulation of cells at G2/M phase at 0.25 uM for 24 hrs by Click-iT EdU Alexa Fluor 647 flow cytometric assay kit analysis (reference value: 25%). The assay is classed as functional.
Assay [20] deals with NCI-H1373. In words: Induction of apoptosis in human NCI-H1373 cells assessed as late apoptotic cells at 0.5 uM for 24 hrs by annexin V-PI staining based flow cytometric analysis (reference value: 22.3%). The assay is classed as functional.
Assay [21] relates to DV-90. In words: Induction of apoptosis in human DV-90 cells assessed as late apoptotic cells at 2.5 uM for 24 hrs by annexin V-PI staining based flow cytometric analysis (reference value: 8.7%). In kind it is functional.

Take `Cc1sc2c(c1C)C(c1ccc(Cl)cc1)=N[C@@H](CC(=O)OC(C)(C)C)c1nnc(C)n1-2`: the result in [1], in assay [2], in assay [3], in [12] and in assay [14] was Active. Besides, the Activity was 17% in assay [4]; 40.2% in assay [6]; 21% in assay [7]; 0.1% in [8]; 25.4% in assay [9]; 0.4% in assay [10]. The Activity in [11] is reported as 4.5%; in [13], 0.2%; in [15] it was 3%; in assay [16], 2.2%; in assay [17], 7%. In addition, in assay [5], the T/C (commonly the result in the treated group divided by that in the control group, in per cent) was determined as 60%.

Take `CCNC(=O)C[C@@H]1N=C(c2ccc(Cl)cc2)c2cc(OC)ccc2-n2c(C)nnc21` [MOLIBRESIB]: the Activity in assay [18] came out at 50%; in [19] it was 31%.

With `Cc1sc2c(c1C)C(c1ccc(Cl)cc1)=N[C@@H](CC(=O)Nc1ccc(O)cc1)c1nnc(C)n1-2` [BIRABRESIB], the results for the Activity in [20] and in assay [21] were 20.5% and 13.5%, respectively.
